Test results as given in article PMC8284440, “Toward New Transmission-Blocking Combination Therapies: Pharmacokinetics of 10-Amino-Artemisinins and 11-Aza-Artemisinin and Comparison with Dihydroartemisinin and Artemether” (Antimicrobial Agents and Chemotherapy, 2021).

Assay: Pharmacokinetics in mice, oral administration
Type: in vivo, male C57/BL6 mice
Conditions: male, C57/BL6, mouse, plasma, oral, 50 mg/kg, oral bioavailability, p.o. 50 mg/kg vs i.v. 10 mg/kg
Method: (i) Animals. Healthy male C57/BL6 mice each weighing approximately 25 g were used. The mice maintained at the University of Cape Town animal facility were housed in 27 by 21 by 18 cm cages, under controlled environmental conditions at 22 ± 2°C and a 12-h light/dark cycle. Humidity was monitored and ranged between 55 and 70%. Food and water were available ad libitum. Mice were acclimatized to their environment for 7 days before experiments were initiated.
(ii) Oral drug administration. Each of artemether, the amino-artemisinins 5 to 10, and 11-aza-artemisinin 11 (12.5 mg) was dissolved in 0.2 ml DMSO, to which 1.8 ml 0.5% (wt/vol) HPMC in water was then added. Compounds were administered orally via gavage at a dose of 50 mg/kg (n = 3). Dosing volumes were calculated based on the weight of each mouse in the respective group. The dosing volumes ranged between 160 μl and 200 μl, ensuring that the dose remained at 50 mg/kg. Blood samples for amino-artemisinins 5 to 8 and 10 were collected via tail-bleeding predose and at 0.08, 0.25, 0.5, 1, 2, and 4 h. Blood samples for the phenylurea 9 and 11-aza-artemisinin 11 were collected at 0.08, 0.5, 1, 2, 4, 8, and 24 h postdose. Samples were placed in 0.5 ml lithium heparin micro vials to prevent blood coagulation. […] The samples were immediately centrifuged at 5,590 × g for 5 min and the plasma was transferred to new microvials. The plasma samples were stored at −80°C.
(§1) Sample extraction. […] The organic layer was then transferred and evaporated under a gentle stream of nitrogen at room temperature for 30 min. The dried samples were reconstituted in mobile phase, and a 5 μl sample was injected for LC-MS/MS analysis. The only exception was the arylurea 10, for which no liquid-liquid extraction was conducted; instead, the 200 μl acetonitrile solution was evaporated under a gentle stream of nitrogen at room temperature. The dried sample was reconstituted in the mobile phase, and a 5 μl sample was injected for LC-MS/MS analysis. The plasma samples for each compound from the in vivo studies were extracted by mixing 350 μl ethyl acetate with 15 μl of plasma sample and 35 μl of universal buffer containing internal standard at pH 8. The samples were vortexed for 1 min and centrifuged for 5 min, and the organic layer was then transferred and evaporated under a gentle stream of nitrogen at room temperature for 30 min. The dried samples were each reconstituted in the mobile phase, and a 5 μl sample was injected for LC-MS/MS analysis.
(§2) LC-MS/MS analysis. For all the artemisinins except the arylurea 10, gradient chromatography was performed on a Phenomenex (Torrance, CA, USA) Luna PFP(2) analytical column (100 Å, 5 μm, 2 by 50 mm) and an AB Sciex API 5500 mass spectrometer which was operated at unit resolution in the multiple reaction monitoring (MRM) mode. The HPLC method used was a gradient method with 5 mM ammonium acetate and 0.1% acetic acid in water as the aqueous phase and a mixture of acetonitrile and methanol (1:1 vol/vol) containing 5% of the aqueous phase as the organic phase ([89]). The arylurea 10 was analyzed using a Phenomenex Gemini NX-C18 (5 μm, 2.1 mm by 50 mm) column with an AB Sciex 3200 QTRAP mass spectrometer operated at unit resolution in the MRM mode. The HPLC method used was a gradient method with 5 mM ammonium acetate and 0.1% acetic acid in water as the aqueous phase and a mixture of acetonitrile and methanol (1:1 vol/vol). The transitions of the molecular ions were monitored, as listed in Table S8 in the supporting information. The calibration range was between 0.002 μg/ml and 6.250 μg/ml.

Row | SMILES | bioavailability
1 | C[C@@H]1CC[C@H]2[C@@H](C)C(=O)N[C@@H]3O[C@@]4(C)CC[C@@H]1[C@]32OO4 [11-Aza-artemisinin 11, 11-aza-artemisinin] | 7%

Same assay, conditions: male, C57/BL6, mouse, plasma, po, 50 mg/kg, oral bioavailability, p.o. 50 mg/kg vs i.v. 10 mg/kg

Row | SMILES | bioavailability
2 | C[C@@H]1CC[C@H]2[C@@H](C)C(=O)N[C@@H]3O[C@@]4(C)CC[C@@H]1[C@]32OO4 [11-Aza-artemisinin 11, 11-aza-artemisinin] | 14%
3 | C[C@H]1[C@H](N2CCS(=O)(=O)CC2)O[C@@H]2O[C@@]3(C)CC[C@H]4[C@H](C)CC[C@@H]1[C@@]24OO3 [Artemisone 6, artemisone] | 32%
4 | C[C@H]1[C@H](N2CCN(C(=O)Nc3ccc(F)cc3)CC2)O[C@@H]2O[C@@]3(C)CC[C@H]4[C@H](C)CC[C@@H]1[C@@]24OO3 [Arylurea 10] | 17.5 ± 3.1%
5 | C[C@H]1[C@H](N2CCSCC2)O[C@@H]2O[C@@]3(C)CC[C@H]4[C@H](C)CC[C@@H]1[C@@]24OO3 [Artemiside 5, artemiside] | 1 ± 0.2%

Same assay, conditions: male, C57/BL6, mouse, plasma, po; p.o. 50 mg/kg, parent

Row | SMILES | Cmax | Tmax
6 | C[C@@H]1CC[C@H]2[C@@H](C)C(=O)N[C@@H]3O[C@@]4(C)CC[C@@H]1[C@]32OO4 [11-Aza-artemisinin 11, 11-aza-artemisinin] | 2600 ± 10 nM | 30 min
7 | C[C@H]1[C@H](N2CCS(=O)(=O)CC2)O[C@@H]2O[C@@]3(C)CC[C@H]4[C@H](C)CC[C@@H]1[C@@]24OO3 [Artemisone 6, artemisone] | 8000 ± 800 nM | 18 ± 6 min
8 | C[C@H]1[C@H](N2CCN(C(=O)Nc3ccc(F)cc3)CC2)O[C@@H]2O[C@@]3(C)CC[C@H]4[C@H](C)CC[C@@H]1[C@@]24OO3 [Arylurea 10] | 2300 ± 300 nM | 30 min
9 | C[C@H]1[C@H](N2CCSCC2)O[C@@H]2O[C@@]3(C)CC[C@H]4[C@H](C)CC[C@@H]1[C@@]24OO3 [Artemiside 5, artemiside] | 100 ± 10 nM | 60 ± 54 min

Same assay, conditions: metabolite formed from p.o. artemiside 5, 50 mg/kg

Row | SMILES | AUC of metabolite
10 | C[C@H]1[C@H](N2CCS(=O)(=O)CC2)O[C@@H]2O[C@@]3(C)CC[C@H]4[C@H](C)CC[C@@H]1[C@@]24OO3 [Artemisone 6, artemisone] | 101.5 ± 49 min/µmol/L

Same assay, conditions: oral bioavailability, p.o. 50 mg/kg vs i.v. 10 mg/kg

Row | SMILES | F
11 | C[C@@H]1CC[C@H]2[C@@H](C)C(=O)N[C@@H]3O[C@@]4(C)CC[C@@H]1[C@]32OO4 [11-Aza-artemisinin 11, 11-aza-artemisinin] | 7.15 ± 0.3%
12 | C[C@H]1[C@H](N2CCS(=O)(=O)CC2)O[C@@H]2O[C@@]3(C)CC[C@H]4[C@H](C)CC[C@@H]1[C@@]24OO3 [Artemisone 6, artemisone] | 34 ± 7.5%

Same assay, conditions: p.o. 50 mg/kg, 0 h to last, parent

Row | SMILES | AUC
13 | C[C@@H]1CC[C@H]2[C@@H](C)C(=O)N[C@@H]3O[C@@]4(C)CC[C@@H]1[C@]32OO4 [11-Aza-artemisinin 11, 11-aza-artemisinin] | 154.9 ± 10 min/µmol/L
14 | C[C@H]1[C@H](N2CCS(=O)(=O)CC2)O[C@@H]2O[C@@]3(C)CC[C@H]4[C@H](C)CC[C@@H]1[C@@]24OO3 [Artemisone 6, artemisone] | 922.7 ± 348 min/µmol/L
15 | C[C@H]1[C@H](N2CCN(C(=O)Nc3ccc(F)cc3)CC2)O[C@@H]2O[C@@]3(C)CC[C@H]4[C@H](C)CC[C@@H]1[C@@]24OO3 [Arylurea 10] | 276.5 ± 48.4 min/µmol/L
16 | C[C@H]1[C@H](N2CCSCC2)O[C@@H]2O[C@@]3(C)CC[C@H]4[C@H](C)CC[C@@H]1[C@@]24OO3 [Artemiside 5, artemiside] | 9.5 ± 2.5 min/µmol/L

Assay: Metabolic stability in mouse liver microsomes
Type: in vitro ADME
Set-up: half-life / CLint scaled: dose or concentration left out as unconfirmed
Conditions: not given
Method: (ii) Metabolic stability in liver microsomes. The metabolic stability assay was performed in duplicate using 96-deepwell plates. Each compound (0.4 mM) was incubated individually in mouse, rat, and pooled human liver microsomes (0.4 mg/ml) at 37°C in the presence and absence of the cofactor NADPH (1 mM). An aliquot was taken at 0, 5, 10, 30, and 60 min, and the reaction was quenched by adding 300 μl of ice-cold acetonitrile containing the internal standard carbamazepine (0.0236 μg/ml) ([88]). The test compounds in the supernatant were analyzed by means of LC-MS/MS as described in “Sample analysis” below. The normalized data for each sample were used to calculate the in vitro half-life, intrinsic clearance rate, and hepatic extraction ratio from the results of this assay using the following equations ([88]).Equation 1. Normalized area. (1) Normalized area=(Peak area of sample at time point/Peak area of internal standard) Equation 2. Percent parent remaining. (2) % Parent=Normalized peak area of sample at time point/Normalized peak area of sample at t=0×100 Equation 3. Calculated t1/2. (3) t1/2=−0.693/λ where λ is the slope of the ln (% parent remaining) versus time curve of the compound.Equation 4. CLint. (4) CLint=[0.693/t1/2(min)]×[Volume of incubation (μl)/Microsomal protein (μg)] Equation 5. Hepatic extraction ratio. (5) EH=fu×CLint/QH + fu×CLint
as §1
as §2, with “μg/ml. Data acquisition and evaluation were performed using Analyst 1.6.2 software (Applied Biosystems, Foster City, CA, USA). The formation of the putative metabolite DHA from the amino-artemisinins and the metabolite M1 of artemisone were evaluated in these mice PK studies; the MRM transitions of DHA and M1 (Table S8) were thus included in the LC-MS/MS assays.” for “μg/ml.”

Row | SMILES | Hepatic extraction ratio EH Mouse
17 | C[C@@H]1CC[C@H]2[C@@H](C)C(=O)N[C@@H]3O[C@@]4(C)CC[C@@H]1[C@]32OO4 [11-Aza-artemisinin 11, 11-aza-artemisinin] | 0.3
18 | C[C@H]1[C@H](N2CCS(=O)(=O)CC2)O[C@@H]2O[C@@]3(C)CC[C@H]4[C@H](C)CC[C@@H]1[C@@]24OO3 [Artemisone 6, artemisone] | 0.9
19 | C[C@H]1[C@H](N2CCN(C(=O)Nc3ccc(F)cc3)CC2)O[C@@H]2O[C@@]3(C)CC[C@H]4[C@H](C)CC[C@@H]1[C@@]24OO3 [Arylurea 10] | 0.6
20 | C[C@H]1[C@H](N2CCSCC2)O[C@@H]2O[C@@]3(C)CC[C@H]4[C@H](C)CC[C@@H]1[C@@]24OO3 [Artemiside 5, artemiside] | 0.9

Same assay, conditions: calculated, read-out: Intrinsic liver clearance rate CLint Mouse

Row | SMILES | CLint scaled
21 | C[C@@H]1CC[C@H]2[C@@H](C)C(=O)N[C@@H]3O[C@@]4(C)CC[C@@H]1[C@]32OO4 [11-Aza-artemisinin 11, 11-aza-artemisinin] | 36.4 mL/min/kg
22 | C[C@H]1[C@H](N2CCS(=O)(=O)CC2)O[C@@H]2O[C@@]3(C)CC[C@H]4[C@H](C)CC[C@@H]1[C@@]24OO3 [Artemisone 6, artemisone] | 805 mL/min/kg
23 | C[C@H]1[C@H](N2CCN(C(=O)Nc3ccc(F)cc3)CC2)O[C@@H]2O[C@@]3(C)CC[C@H]4[C@H](C)CC[C@@H]1[C@@]24OO3 [Arylurea 10] | 2480 mL/min/kg
24 | C[C@H]1[C@H](N2CCSCC2)O[C@@H]2O[C@@]3(C)CC[C@H]4[C@H](C)CC[C@@H]1[C@@]24OO3 [Artemiside 5, artemiside] | 551 mL/min/kg

Same assay, conditions: read-out: Microsomal half-life t1/2 Mouse

Row | SMILES | half-life
25 | C[C@@H]1CC[C@H]2[C@@H](C)C(=O)N[C@@H]3O[C@@]4(C)CC[C@@H]1[C@]32OO4 [11-Aza-artemisinin 11, 11-aza-artemisinin] | > 150 min
26 | C[C@H]1[C@H](N2CCS(=O)(=O)CC2)O[C@@H]2O[C@@]3(C)CC[C@H]4[C@H](C)CC[C@@H]1[C@@]24OO3 [Artemisone 6, artemisone] | < 10 min
27 | C[C@H]1[C@H](N2CCN(C(=O)Nc3ccc(F)cc3)CC2)O[C@@H]2O[C@@]3(C)CC[C@H]4[C@H](C)CC[C@@H]1[C@@]24OO3 [Arylurea 10] | < 10 min
28 | C[C@H]1[C@H](N2CCSCC2)O[C@@H]2O[C@@]3(C)CC[C@H]4[C@H](C)CC[C@@H]1[C@@]24OO3 [Artemiside 5, artemiside] | 12.4 min
